# Measured values published in paper PMC6308944, “Anti-Candida albicans Activity of Thiazolylhydrazone Derivatives in Invertebrate and Murine Models” (Journal of Fungi, 2018).
# Experiments:
# [1] = tested on: C. albicans CAN14; assay: Murine model of oral candidiasis; assay type: in vivo, C57BL/6 mice; conditions: 600 IU, into the mouth every 12 h for 4 days, immunosuppressed mice
# [2] = tested on: C. neoformans (H99); assay: MIC, broth microdilution (CLSI M27-A3), reference isolate; conditions: Cryptococcus neoformans
# [3] = tested on: C. albicans (CAN14); assay: as above; conditions: Candida albicans
# [4] = tested on: Cryptococcus neoformans clinical isolates; assay: MIC, broth microdilution, clinical isolates
# [5] = tested on: C. dublinensis (MYA-646); assay: MIC, broth microdilution (CLSI M27-A3), reference isolate; conditions: Candida dubliniensis
# [6] = tested on: C. krusei (ATCC6258); assay: as above; conditions: Pichia kudriavzevii
# [7] = tested on: Candida glabrata clinical isolates; assay: MIC, broth microdilution, clinical isolates; conditions: for MIC50 / MIC90 / MIC: Nakaseomyces glabratus; for susceptibility of isolates according to CLSI M27-S4: all C. glabrata clinical isolates
# [8] = tested on: C. albicans (DAY-185); assay: MIC, broth microdilution (CLSI M27-A3), reference isolate; conditions: Candida albicans, 48 h
# [9] = tested on: C. tropicalis (ATCC13803); assay: as above; conditions: Candida tropicalis
# [10] = tested on: Candida albicans clinical isolates; assay: MIC, broth microdilution, clinical isolates
# [11] = tested on: C. glabrata (ATCC90030); assay: MIC, broth microdilution (CLSI M27-A3), reference isolate; conditions: Nakaseomyces glabratus
# [12] = tested on: C. parapsilosis (ATCC22019); assay: as above; conditions: Lodderomyces parapsilosis
# [13] = tested on: Candida parapsilosis isolates; assay: MIC, broth microdilution, clinical isolates
# [14] = tested on: C. albicans CAN14; assay: Murine model of systemic candidiasis; assay type: in vivo, C57BL/6 mice; conditions: 10 mg/kg intraperitoneally every 12 h for 5 days
# Description: Female mice were used in the oral and systemic candidiasis model.
# The murine model of systemic candidiasis was established according to the protocol previously described by [16], with modifications. […] Treatments to mice, performed intraperitoneally, were started 3 h after infection and persisted every 12 h for 5 days. […] All mice were sacrificed by cervical dislocation after 5 days and the kidneys were removed, observed macroscopically for lesions and colonies, weighed, measured and homogenized in PBS. The homogenates were serially diluted and plated on Sabouraud medium plates. Plates were incubated at 30 °C for 48 h and the fungal load was expressed as the ratio of CFU/g of kidney.
# A p value ≤ 0.05 was considered significant. Statistical analysis of results of murine tests used Newman–Keuls Multiple and the Student’s t-test using GraphPad Prism, a p-value ≤ 0.05 was considered significant.
# [15] = C. neoformans clinical isolate 27JF
# [16] = C. neoformans clinical isolate 28JF
# [17] = C. neoformans clinical isolate 93
# [18] = C. neoformans clinical isolate 94
# [19] = C. neoformans clinical isolate 646B
# [20] = C. neoformans clinical isolate 975
# [21] = C. neoformans clinical isolate 9220
# [22] = C. neoformans clinical isolate 9273
# [23] = C. neoformans clinical isolate 10131
# [24] = C. neoformans clinical isolate 10211
# [25] = C. neoformans clinical isolate 10264
# [26] = C. neoformans clinical isolate 10335
# [27] = C. neoformans clinical isolate 10379
# [28] = C. neoformans clinical isolate 41292
# [29] = C. neoformans clinical isolate 41295
# [30] = C. neoformans clinical isolate 41296
# [31] = C. neoformans clinical isolate 41297
# [32] = C. neoformans clinical isolate 41298
# [33] = C. neoformans clinical isolate 41299
# [34] = C. neoformans clinical isolate 90896
# [35] = C. neoformans clinical isolate 92868
# [36] = C. neoformans clinical isolate BF113
# [37] = C. neoformans clinical isolate BF114
# [38] = C. neoformans clinical isolate C31
# [39] = C. neoformans clinical isolate F10
# [40] = C. neoformans clinical isolate RN01
# [41] = C. neoformans clinical isolate WP
# [42] = C. glabrata clinical isolate 6922
# [43] = C. glabrata clinical isolate 6927
# [44] = C. glabrata clinical isolate 6931
# [45] = C. glabrata clinical isolate 6932
# [46] = C. glabrata clinical isolate 6943
# [47] = C. glabrata clinical isolate 7110
# [48] = C. glabrata clinical isolate 7221
# [49] = C. glabrata clinical isolate 7255
# [50] = C. glabrata clinical isolate 7815
# [51] = C. glabrata clinical isolate 7871
# [52] = Candida albicans, C. albicans clinical isolate 1
# [53] = Candida albicans, C. albicans clinical isolate 02A
# [54] = Candida albicans, C. albicans clinical isolate 02B
# [55] = Candida albicans, C. albicans clinical isolate 6
# [56] = Candida albicans, C. albicans clinical isolate 7
# [57] = Candida albicans, C. albicans clinical isolate 9
# [58] = Candida albicans, C. albicans clinical isolate 10
# [59] = Candida albicans, C. albicans clinical isolate 11
# [60] = Candida albicans, C. albicans clinical isolate 13
# [61] = nine C. albicans clinical isolates
# [62] = Lodderomyces parapsilosis, C. parapsilosis isolate 6901
# [63] = Lodderomyces parapsilosis, C. parapsilosis isolate 6917
# [64] = Lodderomyces parapsilosis, C. parapsilosis isolate 6933
# [65] = Lodderomyces parapsilosis, C. parapsilosis isolate 7449
# [66] = Lodderomyces parapsilosis, C. parapsilosis isolate 7585
# [67] = Lodderomyces parapsilosis, C. parapsilosis isolate 7652
# [68] = Lodderomyces parapsilosis, C. parapsilosis isolate 7839
# [69] = Lodderomyces parapsilosis, C. parapsilosis isolate 7970A
# [70] = Lodderomyces parapsilosis, C. parapsilosis isolate 8044
# [71] = Lodderomyces parapsilosis, C. parapsilosis isolate 8662
compound,measurement,setting,value
C[C@@H]1[C@H](O)[C@@H](C)/C=C/C=C/CC/C=C/C=C/C=C/C=C/C(O[C@H]2O[C@H](C)[C@@H](O)[C@H](N)[C@@H]2O)CC2O[C@](O)(CC(O)C(O)CCC(O)CC(O)CC(O)CC(=O)O[C@H]1C)CC(O)C2C(=O)O (some centres unmarked) [nystatin],fungal load on the tongue (CFU) versus untreated control,[1],lower
C[C@@H]1[C@H](O)[C@@H](C)/C=C/C=C/C=C/C=C/C=C/C=C/C=C/[C@H](O[C@@H]2O[C@H](C)[C@@H](O)[C@H](N)[C@@H]2O)C[C@@H]2O[C@](O)(C[C@@H](O)C[C@@H](O)[C@H](O)CC[C@@H](O)C[C@@H](O)CC(=O)O[C@H]1C)C[C@H](O)[C@H]2C(=O)O [Amphotericin B],MIC,[2],4 µg/mL
same,MIC,[3],1 µg/mL
same,MIC50,[4],0.125 µg/mL
same,MIC90,[4],0.25 µg/mL
same,MIC,[4]; [15],0.25 µg/mL
same,MIC,[4]; [16],0.125 µg/mL
same,MIC,[4]; [17],0.25 µg/mL
same,MIC,[4]; [18],0.25 µg/mL
same,MIC,[4]; [19],0.125 µg/mL
same,MIC,[4]; [20],0.125 µg/mL
same,MIC,[4]; [21],0.125 µg/mL
same,MIC,[4]; [22],0.125 µg/mL
same,MIC,[4]; [23],0.125 µg/mL
same,MIC,[4]; [24],0.125 µg/mL
same,MIC,[4]; [25],0.125 µg/mL
same,MIC,[4]; [26],0.125 µg/mL
same,MIC,[4]; [27],0.125 µg/mL
same,MIC,[4]; [28],0.125 µg/mL
same,MIC,[4]; [29],0.125 µg/mL
same,MIC,[4]; [30],1 µg/mL
same,MIC,[4]; [31],0.125 µg/mL
same,MIC,[4]; [32],0.125 µg/mL
same,MIC,[4]; [33],0.125 µg/mL
same,MIC,[4]; [34],0.125 µg/mL
same,MIC,[4]; [35],0.25 µg/mL
same,MIC,[4]; [36],1 µg/mL
same,MIC,[4]; [37],< 0.0625 µg/mL
same,MIC,[4]; [38],0.125 µg/mL
same,MIC,[4]; [39],0.25 µg/mL
same,MIC,[4]; [40],0.125 µg/mL
same,MIC,[4]; [41],1 µg/mL
same,MIC,[5],1 µg/mL
same,MIC,[6],8 µg/mL
same,MIC50,[7],0.5 µg/mL
same,MIC90,[7],1 µg/mL
same,MIC,[7]; [42],0.5 µg/mL
same,MIC,[7]; [43],1 µg/mL
same,MIC,[7]; [44],0.5 µg/mL
same,MIC,[7]; [45],0.5 µg/mL
same,MIC,[7]; [46],1 µg/mL
same,MIC,[7]; [47],0.5 µg/mL
same,MIC,[7]; [48],0.5 µg/mL
same,MIC,[7]; [49],1 µg/mL
same,MIC,[7]; [50],0.5 µg/mL
same,MIC,[7]; [51],1 µg/mL
same,susceptibility of isolates according to CLSI M27-S4,[7],sensitive
same,MIC,[8],1 µg/mL
same,MIC,[9],4 µg/mL
same,MIC50,[10]; Candida albicans,0.25 µg/mL
same,MIC90,[10]; Candida albicans,0.25 µg/mL
same,MIC,[10]; [52],0.25 µg/mL
same,MIC,[10]; [53],0.25 µg/mL
same,MIC,[10]; [54],0.25 µg/mL
same,MIC,[10]; [55],0.5 µg/mL
same,MIC,[10]; [56],0.125 µg/mL
same,MIC,[10]; [57],0.25 µg/mL
same,MIC,[10]; [58],0.25 µg/mL
same,MIC,[10]; [59],0.125 µg/mL
same,MIC,[10]; [60],0.125 µg/mL
same,MIC90,[10]; [61],0.25 µg/mL
same,MIC,[11],2 µg/mL
same,MIC,[12],2 µg/mL
same,MIC90,[13]; C. parapsilosis isolates,0.5 µg/mL
same,MIC50,[13]; Lodderomyces parapsilosis,0.25 µg/mL
same,MIC90,[13]; Lodderomyces parapsilosis,0.5 µg/mL
same,MIC,[13]; [62],0.5 µg/mL
same,MIC,[13]; [63],0.25 µg/mL
same,MIC,[13]; [64],0.5 µg/mL
same,MIC,[13]; [65],0.5 µg/mL
same,MIC,[13]; [66],0.25 µg/mL
same,MIC,[13]; [67],0.25 µg/mL
same,MIC,[13]; [68],0.5 µg/mL
same,MIC,[13]; [69],0.25 µg/mL
same,MIC,[13]; [70],0.5 µg/mL
same,MIC,[13]; [71],0.25 µg/mL
OC(Cn1cncn1)(Cn1cncn1)c1ccc(F)cc1F [Fluconazole],MIC,[2],2 µg/mL
same,MIC,[3],0.125 µg/mL
same,MIC50,[4],8 µg/mL
same,MIC90,[4],16 µg/mL
same,MIC,[4]; [15],8 µg/mL
same,MIC,[4]; [16],8 µg/mL
same,MIC,[4]; [17],4 µg/mL
same,MIC,[4]; [18],8 µg/mL
same,MIC,[4]; [19],1 µg/mL
same,MIC,[4]; [20],2 µg/mL
same,MIC,[4]; [21],2 µg/mL
same,MIC,[4]; [22],2 µg/mL
same,MIC,[4]; [23],8 µg/mL
same,MIC,[4]; [24],4 µg/mL
same,MIC,[4]; [25],4 µg/mL
same,MIC,[4]; [26],8 µg/mL
same,MIC,[4]; [27],8 µg/mL
same,MIC,[4]; [28],8 µg/mL
same,MIC,[4]; [29],32 µg/mL
same,MIC,[4]; [30],16 µg/mL
same,MIC,[4]; [31],8 µg/mL
same,MIC,[4]; [32],8 µg/mL
same,MIC,[4]; [33],4 µg/mL
same,MIC,[4]; [34],32 µg/mL
same,MIC,[4]; [35],8 µg/mL
same,MIC,[4]; [36],16 µg/mL
same,MIC,[4]; [37],64 µg/mL
same,MIC,[4]; [38],4 µg/mL
same,MIC,[4]; [39],4 µg/mL
same,MIC,[4]; [40],4 µg/mL
same,MIC,[4]; [41],8 µg/mL
same,MIC,[5],1 µg/mL
same,MIC,[6],64 µg/mL
same,MIC50,[7],2 µg/mL
same,MIC90,[7],2 µg/mL
same,MIC,[7]; [42],2 µg/mL
same,MIC,[7]; [43],2 µg/mL
same,MIC,[7]; [44],0.5 µg/mL
same,MIC,[7]; [45],0.5 µg/mL
same,MIC,[7]; [46],8 µg/mL
same,MIC,[7]; [47],1 µg/mL
same,MIC,[7]; [48],0.5 µg/mL
same,MIC,[7]; [49],2 µg/mL
same,MIC,[7]; [50],2 µg/mL
same,MIC,[7]; [51],2 µg/mL
same,susceptibility of isolates according to CLSI M27-S4,[7],sensitive
same,fungal load in the kidneys (CFU/g) versus untreated control,[14],significant reduction
same,MIC,[8],0.5 µg/mL
same,MIC,[9],> 64 µg/mL
same,MIC50,[10]; Candida albicans,1 µg/mL
same,MIC90,[10]; Candida albicans,2 µg/mL
same,MIC,[10]; [52],1 µg/mL
same,MIC,[10]; [53],4 µg/mL
same,MIC,[10]; [54],2 µg/mL
same,MIC,[10]; [55],1 µg/mL
same,MIC,[10]; [56],1 µg/mL
same,MIC,[10]; [57],0.5 µg/mL
same,MIC,[10]; [58],0.5 µg/mL
same,MIC,[10]; [59],1 µg/mL
same,MIC,[10]; [60],1 µg/mL
same,MIC90,[10]; [61],2.0 µg/mL
same,MIC,[11],4 µg/mL
same,MIC,[12],8 µg/mL
same,MIC90,[13]; C. parapsilosis isolates,16 µg/mL
same,MIC50,[13]; Lodderomyces parapsilosis,0.25 µg/mL
same,MIC90,[13]; Lodderomyces parapsilosis,16 µg/mL
same,MIC,[13]; [62],0.25 µg/mL
same,MIC,[13]; [63],0.25 µg/mL
same,MIC,[13]; [64],0.25 µg/mL
same,MIC,[13]; [65],16 µg/mL
same,MIC,[13]; [66],0.25 µg/mL
same,MIC,[13]; [67],4 µg/mL
same,MIC,[13]; [68],0.5 µg/mL
same,MIC,[13]; [69],1 µg/mL
same,MIC,[13]; [70],0.25 µg/mL
same,MIC,[13]; [71],16 µg/mL
